Reference: paper PMC9105976, “A Novel β-Hairpin Peptide Z-d14CFR Enhances Multidrug-Resistant Bacterial Clearance in a Murine Model of Mastitis” (International Journal of Molecular Sciences, 2022)
Positions of bridges follow the written chain, without caps; N, C: chain ends. Residues, ends and D or L forms follow the SMILES beside them.

Experiments:
MRSA ATCC33591 = experiment: MIC/MBC, microdilution broth method; format: cell-based, S. aureus; conditions: for MIC: MRSA (methicillin-resistant S. aureus) ATCC33591, 1 × 10^6 CFU/mL, 18 h at 37 °C, NA = no antimicrobial activity at 1 mg/mL; for MBC: MRSA ATCC33591, kills 99.9% bacteria, NA = no activity at 1 mg/mL
Method: (§1) The MIC of peptides against bacteria was carried out by the microdilution broth method. The bacterial culture (OD 600 = 0.6) was diluted in 10 mM PBS to 1 × 10^6 CFU/mL. The bacterial suspension (100 μL) was added to 96-well plates, and the same volume of peptides, ampicillin or gentamicin (concentrations ranging from 0.001 to 2 mg/mL) were then added to the same 96-well plates, respectively.

[1] = system: Klebsiella pneumoniae CAU202084; experiment: MIC/MBC, microdilution broth method; format: cell-based; conditions: Klebsiella pneumoniae CAU202084 (MDR isolate); for MIC: 1 × 10^6 CFU/mL, 18 h at 37 °C, NA = no antimicrobial activity at 1 mg/mL; for MBC: kills 99.9% bacteria, NA = no activity at 1 mg/mL
Method: as §1

[2] = system: Salmonella typhimurium ATCC14028; experiment: MIC/MBC, microdilution broth method; format: cell-based; conditions: Salmonella typhimurium ATCC14028; for MIC: 1 × 10^6 CFU/mL, 18 h at 37 °C, NA = no antimicrobial activity at 1 mg/mL; for MBC: kills 99.9% bacteria, NA = no activity at 1 mg/mL
Method: as §1

[3] = system: Staphylococcus haemolyticus CAU202078; experiment: MIC/MBC, microdilution broth method; format: cell-based; conditions: Staphylococcus haemolyticus CAU202078 (MDR isolate); for MIC: 1 × 10^6 CFU/mL, 18 h at 37 °C, NA = no antimicrobial activity at 1 mg/mL; for MBC: kills 99.9% bacteria, NA = no activity at 1 mg/mL
Method: as §1

[4] = system: Proteus vulgaris CVCC1971; experiment: MIC/MBC, microdilution broth method; format: cell-based; conditions: Proteus vulgaris CVCC1971; for MIC: 1 × 10^6 CFU/mL, 18 h at 37 °C, NA = no antimicrobial activity at 1 mg/mL; for MBC: kills 99.9% bacteria, NA = no activity at 1 mg/mL
Method: as §1

[5] = system: Streptococcus suis CVCC3307; experiment: MIC/MBC, microdilution broth method; format: cell-based; conditions: Streptococcus suis CVCC3307; for MIC: 1 × 10^6 CFU/mL, 18 h at 37 °C, NA = no antimicrobial activity at 1 mg/mL; for MBC: kills 99.9% bacteria, NA = no activity at 1 mg/mL
Method: as §1

[6] = Retention time of peptide in HPLC (hydrophobicity); format: physicochemical; conditions: used as measure of hydrophobicity (order Z-d14CR > Z-d14CF > Z-d13 > Z-d14CFR > Z-d14C); column and gradient not given
[7] = system: Escherichia coli CVCC1450; experiment: MIC/MBC, microdilution broth method; format: cell-based; conditions: Escherichia coli CVCC1450
Method: as §1

[8] = system: Staphylococcus aureus ATCC29213; experiment: MIC/MBC, microdilution broth method; format: cell-based; conditions: Staphylococcus aureus ATCC29213
Method: as §1

[9] = system: Escherichia coli CAU 201919; experiment: MIC/MBC, microdilution broth method; format: cell-based; conditions: Escherichia coli CAU 201919 (MDR isolate)
Method: as §1

[10] = 1 × 10^6 CFU/mL, 18 h at 37 °C, NA = no antimicrobial activity at 1 mg/mL
[11] = kills 99.9% bacteria, NA = no activity at 1 mg/mL

Question: What does the source list for `CC(C)[C@@H]1NC(=O)[C@@H]2CSSC[C@H](NC(=O)[C@H](CCCNC(=N)N)NC(=O)[C@@H](NC(=O)CNC(=O)[C@@H](N)CCCNC(=N)N)CSSC[C@@H](C(=O)N[C@@H](CCCNC(=N)N)C(N)=O)NC1=O)C(=O)N[C@@H](CC(N)=O)C(=O)N[C@@H](CO)C(=O)N[C@@H](CCCCN)C(=O)N[C@@H](CO)C(=O)N[C@@H](C(C)C)C(=O)N2` [Z-d14CR] (H-RGCRCNSKSVCVCR-NH2; disulfide 3-13, 5-11; N-terminus assumed)?
Answer: MIC (MRSA ATCC33591): NA (NA) (No antimicrobial activity at 1 mg/mL); MBC (MRSA ATCC33591): NA (NA) (No antimicrobial activity at 1 mg/mL); MIC [1]: NA (NA) (No antimicrobial activity at 1 mg/mL); MBC [1]: NA (NA) (No antimicrobial activity at 1 mg/mL); MIC [2]: NA (NA) (No antimicrobial activity at 1 mg/mL); MBC [2]: NA (NA) (No antimicrobial activity at 1 mg/mL); MIC [3]: NA (NA) (No antimicrobial activity at 1 mg/mL); MBC [3]: NA (NA) (No antimicrobial activity at 1 mg/mL); MIC [4]: NA (NA) (No antimicrobial activity at 1 mg/mL); MBC [4]: NA (NA) (No antimicrobial activity at 1 mg/mL); MIC [5]: NA (NA) (No antimicrobial activity at 1 mg/mL); MBC [5]: NA (NA) (No antimicrobial activity at 1 mg/mL); RT, retention time of peptide in HPLC [6]: 10.159 min

Question: For `CC(C)[C@@H]1NC(=O)[C@@H]2CSSC[C@H](NC(=O)[C@H](Cc3ccc(O)cc3)NC(=O)[C@@H](NC(=O)CNC(=O)[C@@H](N)CCCNC(=N)N)CSSC[C@@H](C(=O)N[C@@H](CCCNC(=N)N)C(N)=O)NC1=O)C(=O)N[C@@H](CC(N)=O)C(=O)N[C@@H](CO)C(=O)N[C@@H](CCCCN)C(=O)N[C@@H](CO)C(=O)N[C@@H](C(C)C)C(=O)N2` [Z-d14C] (H-RGCYCNSKSVCVCR-NH2; disulfide 3-13, 5-11; N-terminus assumed), which MIC (MRSA ATCC33591) is on record?
Answer: NA (NA) (No antimicrobial activity at 1 mg/mL)

Question: And the MBC (MRSA ATCC33591)?
Answer: NA (NA) (No antimicrobial activity at 1 mg/mL)

Question: And the MIC [7, 10]?
Answer: NA (NA) (No antimicrobial activity at 1 mg/mL)

Question: What about the MBC ([7]; minimum concentration which kills 99.9% bacteria, NA = no activity at 1 mg/mL) of the same compound?
Answer: NA (NA) (No antimicrobial activity at 1 mg/mL)

Question: And the MIC [1]?
Answer: NA (NA) (No antimicrobial activity at 1 mg/mL)

Question: And the MBC [1]?
Answer: NA (NA) (No antimicrobial activity at 1 mg/mL)

Question: And the MIC [2]?
Answer: NA (NA) (No antimicrobial activity at 1 mg/mL)

Question: And the MBC [2]?
Answer: NA (NA) (No antimicrobial activity at 1 mg/mL)

Question: And the MIC [3]?
Answer: NA (NA) (No antimicrobial activity at 1 mg/mL)

Question: What about the MBC [3] of the same compound?
Answer: NA (NA) (No antimicrobial activity at 1 mg/mL)

Question: What about the MIC [4] of the same compound?
Answer: NA (NA) (No antimicrobial activity at 1 mg/mL)

Question: And the MBC [4]?
Answer: NA (NA) (No antimicrobial activity at 1 mg/mL)

Question: What about the MIC [8, 10] of the same compound?
Answer: NA (NA) (No antimicrobial activity at 1 mg/mL)

Question: And the MBC [8, 11]?
Answer: NA (NA) (No antimicrobial activity at 1 mg/mL)

Question: What about the MIC [5] of the same compound?
Answer: NA (NA) (No antimicrobial activity at 1 mg/mL)

Question: What about the MBC [5] of the same compound?
Answer: NA (NA) (No antimicrobial activity at 1 mg/mL)

Question: And the MIC [9, 10]?
Answer: NA (NA) (No antimicrobial activity at 1 mg/mL)

Question: And the MBC [9, 11]?
Answer: NA (NA) (No antimicrobial activity at 1 mg/mL)

Question: What about the “RT, retention time of peptide in HPLC” value [6] of the same compound?
Answer: 7.809 min
